Measured values reported in US20190248779A1, “COMPOUNDS, COMPOSITIONS, AND METHODS FOR INCREASING CFTR ACTIVITY” (Proteostasis Therapeutics, Inc., priority 2016, published 2019).

Molecular target: T1, ΔF508-CFTR (Homo sapiens, UniProt P13569, DEL508-508)
T1 construct: Primary lung epithelial cells homozygous for the Cystic Fibrosis-causing ΔF508 mutation were differentiated for a minimum of 4 weeks; endogenous in cells; host or cells: primary lung (bronchial) epithelial cells (hBE) homozygous for ΔF508, differentiated at an air-liquid interface
Test: hBE equivalent current (Ieq) assay
Type: cell-based
Conditions: 24 h, relative to a CFTR amplifier at 3 uM, AUC of equivalent chloride current, primary lung epithelial cells homozygous for ΔF508; for Activity 3 μM: compound at 3 μM; for Activity 10 μM: compound at 10 μM
Procedure: ii. hBE Equivalent Current (Ieq) Assay
Primary lung epithelial cells homozygous for the Cystic Fibrosis-causing ΔF508 mutation were differentiated for a minimum of 4 weeks in an air-liquid interface on Costar 24 well HTS filter plates prior to the equivalent current (Ieq) measurements. Cells were apically mucus-washed for 30 minutes 24 h prior to treatment with compounds. The basolateral media was removed and replaced with media containing the compound of interest diluted to its final concentration from DMSO stocks. Treated cells were incubated at 37° C. and 5% CO2 for 24 hours. At the end of the treatment period, the media was changed to the Ieq experimental solution for 2 hours before the experiment and plates are maintained in a CO2-free incubator during this period. The plates containing the cells were then placed in pre-warmed heating blocks at 36° C.±0.5 for 15 minutes before measurements are taken. The transepithelial voltage (VT) and conductance (GT) were measured using a custom 24 channel current clamp (TECC-24) with 24 well electrode manifold. The Ieq assay measurements were made following additions with standardized time periods:
1. The baseline VT and GT values were measured for approximately 20 minutes.
2. Benzamil was added to block ENaC for 15 minutes.
3. Forskolin plus VX-770 were added to maximally activate ΔF508-CFTR for 27 minutes.
4. Bumetanide was added to inhibit the NaK2Cl cotransporter and shut-off secretion of chloride.
The activity data captured was the area under the curve (AUC) for the traces of the equivalent chloride current. The AUC was collected from the time of the forskolin/VX-770 addition until the inhibition by bumetanide addition. Correction in response to compound treatment was scored as the increase in the AUC for compound-treated samples over that of vehicle-treated samples.
The results are shown below in Table 1. + indicates activity <150% of a CFTR amplifier with compound at concentration shown and amplifier at 3 uM; ++ indicates activity >150% of a CFTR amplifier with compound at concentration shown and amplifier at 3 uM.

T1 sequence (P13569 with tags, fused parts or gaps DEL508-508): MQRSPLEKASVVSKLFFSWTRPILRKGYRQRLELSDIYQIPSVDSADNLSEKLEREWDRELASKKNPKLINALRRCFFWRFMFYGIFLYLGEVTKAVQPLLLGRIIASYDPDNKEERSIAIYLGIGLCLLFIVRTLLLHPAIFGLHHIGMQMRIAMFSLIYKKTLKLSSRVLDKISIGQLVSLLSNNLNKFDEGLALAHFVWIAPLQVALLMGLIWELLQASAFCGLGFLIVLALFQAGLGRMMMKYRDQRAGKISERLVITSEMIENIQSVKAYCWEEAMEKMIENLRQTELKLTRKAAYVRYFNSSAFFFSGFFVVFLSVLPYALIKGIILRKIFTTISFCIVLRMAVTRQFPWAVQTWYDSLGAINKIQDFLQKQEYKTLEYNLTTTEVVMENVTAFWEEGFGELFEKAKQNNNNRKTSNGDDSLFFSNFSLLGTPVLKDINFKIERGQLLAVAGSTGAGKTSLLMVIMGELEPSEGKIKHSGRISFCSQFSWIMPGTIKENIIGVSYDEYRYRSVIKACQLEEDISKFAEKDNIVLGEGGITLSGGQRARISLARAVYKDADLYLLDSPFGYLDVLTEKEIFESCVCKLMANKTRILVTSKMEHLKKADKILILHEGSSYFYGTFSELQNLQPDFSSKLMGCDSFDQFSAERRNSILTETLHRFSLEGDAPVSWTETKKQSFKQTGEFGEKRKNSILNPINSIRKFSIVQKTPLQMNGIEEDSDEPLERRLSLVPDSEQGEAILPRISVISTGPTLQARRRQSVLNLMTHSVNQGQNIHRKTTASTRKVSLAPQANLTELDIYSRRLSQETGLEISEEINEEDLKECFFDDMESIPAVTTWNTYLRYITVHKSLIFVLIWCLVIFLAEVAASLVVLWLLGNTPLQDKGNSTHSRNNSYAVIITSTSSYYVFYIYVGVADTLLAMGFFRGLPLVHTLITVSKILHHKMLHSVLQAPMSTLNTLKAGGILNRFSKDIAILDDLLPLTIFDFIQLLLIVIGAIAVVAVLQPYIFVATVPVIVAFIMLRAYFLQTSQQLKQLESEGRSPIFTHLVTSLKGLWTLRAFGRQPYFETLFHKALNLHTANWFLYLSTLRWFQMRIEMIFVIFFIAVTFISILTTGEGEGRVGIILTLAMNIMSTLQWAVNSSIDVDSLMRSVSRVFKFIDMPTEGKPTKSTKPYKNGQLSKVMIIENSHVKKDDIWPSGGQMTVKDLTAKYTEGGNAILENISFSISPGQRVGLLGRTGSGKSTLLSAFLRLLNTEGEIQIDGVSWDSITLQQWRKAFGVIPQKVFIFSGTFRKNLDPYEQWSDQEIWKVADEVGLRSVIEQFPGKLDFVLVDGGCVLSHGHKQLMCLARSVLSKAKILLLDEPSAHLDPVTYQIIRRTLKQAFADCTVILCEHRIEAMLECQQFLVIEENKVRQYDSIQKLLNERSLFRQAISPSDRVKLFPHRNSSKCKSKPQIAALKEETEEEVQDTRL

COc1cccc(-c2ccc(=O)n(C(C)C(=O)NC3CCCCC3)n2)c1 (centres unmarked) [Compound 4, N-Cyclohexyl-2-(3-(3-methoxyphenyl)-6-oxopyridazin-1(6H)-yl)propanamide]
Activity 3 μM: + (activity <150% of a CFTR amplifier with compound at concentration shown and amplifier at 3 uM)
Activity 10 μM: + (activity <150% of a CFTR amplifier with compound at concentration shown and amplifier at 3 uM)

COc1ccnc(-c2ccc(=O)n(C(C)C(=O)Nc3ccc(C(F)(F)F)cc3)n2)c1 (centres unmarked) [Compound 21, 2-(3-(4-Methoxypyridin-2-yl)-6-oxopyridazin-1(6H)-yl)-N-(4-(trifluoromethyl)phenyl)propanamide]
Activity 10 μM: + (activity <150% of a CFTR amplifier with compound at concentration shown and amplifier at 3 uM)

COc1cccc(-c2ccc(=O)n(C(C)C(=O)Nc3ccccn3)n2)c1 (centres unmarked) [Compound 5, 2-(3-(3-Methoxyphenyl)-6-oxopyridazin-1(6H)-yl)-N-(pyridin-2-yl)propanamide]
Activity 3 μM: + (activity <150% of a CFTR amplifier with compound at concentration shown and amplifier at 3 uM)
Activity 10 μM: + (activity <150% of a CFTR amplifier with compound at concentration shown and amplifier at 3 uM)

CC(C(=O)Nc1ccc(C(F)(F)F)cc1)n1nc(-c2cc(Cl)sc2Cl)ccc1=O (centres unmarked) [Compound 25, 2-(3-(2,5-Dichlorothiophen-3-yl)-6-oxopyridazin-1(6H)-yl)-N-(4-(trifluoromethyl)phenyl)propanamide]
Activity 10 μM: + (activity <150% of a CFTR amplifier with compound at concentration shown and amplifier at 3 uM)

CC(C(=O)Nc1ccc(C(F)(F)F)cc1)n1nc(-c2ccsc2Cl)ccc1=O (centres unmarked) [Compound 24, 2-(3-(2-Chlorothiophen-3-yl)-6-oxopyridazin-1(6H)-yl)-N-(4-(trifluoromethyl)phenyl)propanamide]
Activity 10 μM: ++ (activity >150% of a CFTR amplifier with compound at concentration shown and amplifier at 3 uM)

COc1cccc(-c2ccc(=O)n(C(C)C(=O)Nc3ccc4cc[nH]c4c3)n2)c1 (centres unmarked) [Compound 2, N-(1H-Indol-6-yl)-2-[3-(3-methoxyphenyl)-6-oxo-1,6-dihydropyridazin-1-yl]propanamide]
Activity 3 μM: + (activity <150% of a CFTR amplifier with compound at concentration shown and amplifier at 3 uM)
Activity 10 μM: + (activity <150% of a CFTR amplifier with compound at concentration shown and amplifier at 3 uM)

COc1cccc(-c2ccc(=O)n(C(C)C(=O)Nc3cccc(C(F)(F)F)n3)n2)c1 (centres unmarked) [Compound 10, 2-(3-(3-Methoxyphenyl)-6-oxopyridazin-1(6H)-yl)-N-(6-(trifluoromethyl)pyridin-2-yl)propanamide]
Activity 3 μM: ++ (activity >150% of a CFTR amplifier with compound at concentration shown and amplifier at 3 uM)
Activity 10 μM: ++ (activity >150% of a CFTR amplifier with compound at concentration shown and amplifier at 3 uM)
